# Laboratory results: paper PMC10304164, “Laurequinone, a Lead Compound against Leishmania” (Marine Drugs, 2023)
# Read-outs that look alike come from different tables or passages of the source.
# Columns and labels:
# [1] = system: L. donovani promastigotes; design: method as in PMID 21717278; conditions: L. donovani promastigotes ref 32; cited from earlier work
# [2] = system: L. donovani axenic amastigotes; design: method as in PMID 21717278; conditions: L. donovani axenic amastigotes ref 32; cited from earlier work
# trypanothione reductase = system: trypanothione reductase; design: method as in PMID 21717278; conditions: cited from earlier work
# [3] = system: Leishmania amazonensis promastigotes; experiment: Alamar Blue assay against promastigotes; assay type: cell-based; conditions: L. amazonensis promastigotes
# Method: Leishmania amazonensis (MHOM/BR/77/LTB0016) promastigotes were cultured in RPMI 1640 medium (Gibco, Waltham, MA, USA), supplemented with 10 % FBS at 26 °C. Additionally, for maintenance, the promastigotes were cultured in SND medium (Sigma-Aldrich, Darmstadt, Germany) supplemented with 10 % FBS at 26 °C. Both media were supplemented with gentamicin at 10 µg/mL.
# Compounds 1–5 were tested against promastigotes of Leishmania amazonensis using the colorimetric assay based on the Alamar Blue® reagent. In a 96-well plate, serial dilutions of the compounds and the promastigote form of the parasite (10^6 cells/mL) were added at a final volume of 200 µL.
# [4] = Cytotoxic activity, Alamar Blue; assay type: cell-based; conditions: mouse, murine macrophages J774A.1, 24 h
# Method: Murine macrophages (J774A.1) ATCC TIB-67 were cultured in RPMI, supplemented with 10% FBS at 37 °C and 5 % CO2 atmosphere.
# In a 96-well plate, macrophages (2 × 10^5 cells/mL) were added. After completing the adherence (2–4 h), macrophages were incubated with serial dilutions of compounds 1–5. […] The selectivity index (SI) was calculated as the ratio of CC50 and IC50 [38].
# [5] = system: L. amazonensis intracellular amastigotes; experiment: Alamar Blue assay against intracellular amastigotes in murine macrophages; assay type: cell-based; conditions: Leishmania amazonensis, Macrophage; intracellular amastigotes of L. amazonensis
# Method: Briefly, in a 96-well plate, murine macrophages (2 × 10^5 cells/mL) were incubated in RPMI medium at 37 °C and 5 % CO2 atmosphere for 2–4 h. Promastigote forms of L. amazonensis (2 × 10^6 cells/mL) were added to reach a 1:10 macrophage:parasite ration, and after 24 h of incubation, the cells were washed to discard the not-introduced parasites. Serial dilutions of the compound were added in 100 µL of RPMI medium. Following 24 h of incubation, the plate was washed, and the cells were broken with SDS 0.05% for 30 s. Fresh medium was added, and 48 h later, 10% Alamar Blue® reagent was added.
# [6] = system: Leishmania amazonensis promastigotes; experiment: ATP level analysis (CellTiter-Glo); assay type: cell-based; conditions: 24 h incubation with IC90, compared to untreated parasites
# Method: (§1) After incubation for 24 h at 26 °C, samples were centrifuged (3000 rpm, 10 min, 4 °C) and resuspended in 50 µL of PBS buffer. Different events involved in parasite cell death were studied following the manufacturer’s instructions for each kit.
# ATP levels were measured using the CellTiter-Glo® Luminescent Cell Viability Assay kit (Promega, Fitchburg, WI, USA) and the EnSpire Multimode Plate Reader® (PerkinElmer, Waltham, MA, USA). After 24 h of incubation with laurequinone (1), the pellet was resuspended in the buffer and the kit. After 2 min of agitation and 10 min of incubation at room temperature in the dark, the luminescence was measured with the EnSpire Multimode Plate Reader®. The results were plotted against the negative control of untreated cells. Sodium azide (20 mM) was added as a positive control.
# [7] = system: Leishmania amazonensis promastigotes; experiment: Mitochondrial membrane potential analysis (JC-1); assay type: cell-based; conditions: 24 h incubation with IC90, JC-1
# Method: as §1
# The JC-1 Mitochondrial Membrane Potential Assay Kit® (Cayman Chemical, Ann Arbor, MI, USA) was used to determine whether an alteration in the mitochondrial potential occurred during cell death. The parasites treated with laurequinone were incubated with the staining solution for 20 min at 26 °C in the dark. Green and red fluorescence were measured using the EnSpire Multimode Plate Reader® (PerkinElmer). The results were expressed as the percentage relative to the untreated cells of the red (J-aggregates 540/570 nm)/green ratio (J-monomers 485/535 nm). The membrane-permeant JC-1 dye is widely used in apoptosis studies to monitor mitochondrial health. […] Consequently, mitochondrial depolarization is indicated by a decrease in the red/green fluorescence intensity ratio. Sodium azide (20 mM) was added as a positive control.
# [8] = system: L. amazonensis promastigotes; experiment: Phosphatidylserine externalization (annexin V/PI, TALI cytometer); assay type: cell-based, Leishmania amazonensis; conditions: 24 h incubation with IC90
# Method: as §1
# A double-staining assay with annexin V/propidium iodide (PI) was performed using the Tali® Apoptosis Kit–Annexin V Alexa Fluor® 488 (Invitrogen^TM, Waltham, MA, USA). Briefly, after incubating the treated parasites for 24 h, they were washed with the buffer and incubated with annexin V for 20 min. Promastigotes were centrifuged and resuspended in buffer containing PI and incubated for 3 min. Finally, the stained cells were loaded into a slide and inserted in a TALI^TM image-based cytometer (Life Technologies, Carlsbad, CA, USA). Data were expressed in percentages, divided into three groups: apoptotic cells (green fluorescence), dead cells (red or red and green fluorescence), and live cells (no fluorescence), provided by TALI® data acquisition and analysis software (Life Technologies).
# [9] = system: L. amazonensis promastigotes; experiment: Reactive oxygen species analysis (CellROX Deep Red); assay type: cell-based, Leishmania amazonensis; conditions: 24 h incubation with IC90
# Method: as §1
# Oxidative stress is the result of an imbalance between the production of reactive oxygen species (ROS) and the cells’ ability to remove them. The CellROX® Deep Red Reagent (ThermoFisher Scientific, Waltham, MA, USA) was used to measure the oxidative stress. […] Treated parasites were incubated and resuspended in the buffer, the kit was added, and the plate was incubated for 30 min at 26 °C in the dark. Oxidative stress is represented as red fluorescence in the images obtained with the Cy5 light cube (excitation 644 nm/emission 665 nm) of the EVOS® FL Cell Imaging System (ThermoFisher Scientific, Waltham, MA, USA). Untreated parasites were used as a negative control, and hydrogen peroxide (600 mM) was used as a positive control.
# [10] = system: L. amazonensis promastigotes; experiment: Chromatin condensation analysis (Hoechst 33342/PI); assay type: cell-based, Leishmania amazonensis; conditions: promastigotes treated with IC90, Hoechst/PI
# Method: as §1
# The Invitrogen Chromatin Condensation/Dead Cell Apoptosis Kit, Hoechst 33342/propidium iodide (PI), was used to determine whether chromatin condensation was produced in the treated parasites. After adding the kit, the parasites were incubated for 30 min at 26 °C in the dark. The results were observed under the EVOS fluorescence microscope using DAPI (excitation 350 nm/emission 461 nm for Hoechst) and RFP (excitation 535 nm/emission 617 nm for PI) light cubes. The obtained images were divided into three types of results: low fluorescence of both stains when the cells were alive, intense fluorescence when the cell had condensed chromatin (programmed cell death), and intense red fluorescence when the cell had died.
# [11] = system: L. amazonensis promastigotes; experiment: Plasma membrane permeability (SYTOX Green); assay type: cell-based, Leishmania amazonensis; conditions: 24 h incubation with IC90
# Method: as §1
# The SYTOX Green assay (Life Technologies, Madrid, Spain) was used to determine the damage in the plasma membrane permeability of treated cells. Parasites were incubated for 24 h with the compound and the stain was added and incubated for 15 min. […] Triton X-100, a well-known non-ionic surfactant, was added at 0.5% for 3 h before staining, as a positive control.
# [12] = Leishmania amazonensis, 72 h, 72 h total, read-out: IC50 Promastigotes
# [13] = 72 h total, read-out: IC50 Promastigotes
Compound,"IC50 [3, 12]",CC50 at 24 h [4],"IC50 [3, 13]",IC50 [5],CC50 at 24 h ([4]; J774A.1 macrophages),other results
CC1=CC(=O)c2c(O)cccc2C1=O [Plumbagin],–,–,–,–,–,IC50 [1]: 340 nM; IC50 [2]: 210 nM; mechanism of action on trypanothione reductase (trypanothione reductase): non-competitive inhibition of trypanothione reductase
"Cc1cc2c(cc1Br)[C@]1(C)CC[C@H](C)[C@]1(C)O2 [Aplysin (5), aplysin]",54.1 µM,1100 ± 40.6 µM,–,–,–,–
"Cc1ccc([C@]2(C)CC[C@@H]3C[C@@]32C)c(O)c1 [Debromolaurinterol (3), debromolaurinterol]",< 15 µM,–,12.48 ± 0.05 µM,24.3 ± 5.09 µM,70.1 ± 12.9 µM,–
"C=C1[C@@H](C)CC[C@@]1(C)c1cc(Br)c(C)cc1O [Isolaurinterol (4), isolaurinterol]",< 15 µM,24.6 ± 2.37 µM,10.1 ± 1.69 µM,–,–,–
"Cc1cc(O)c([C@]2(C)CC[C@@H]3C[C@@]32C)cc1Br [Laurinterol (2), laurinterol]",34.5 ± 6.44 µM,80.1 ± 7.79 µM,–,34.7 ± 4.06 µM,–,–
"CCCCCCCCCCCCCCCCOP(=O)([O-])OCC[N+](C)(C)C [Miltefosine, miltefosine, reference compound]",6.48 ± 0.25 µM,–,–,3.12 ± 0.29 µM,72.2 ± 3.07 µM,–
"CC1=CC(=O)C([C@]2(C)CC[C@@H]3C[C@@]32C)=CC1=O [Laurequinone (1), laurequinone]",< 2 µM,–,1.87 ± 0.17 µM,16.7 ± 6.08 µM,42.1 ± 1.3 µM,"IC50 ([3]; Leishmania amazonensis, expressed in µg/mL, read-out: IC50): 0.43 µg/mL; ATP levels [6]: no change in ATP levels; mitochondrial membrane potential (ΔΨm) [7]: significant decrease in mitochondrial membrane potential; cell population with exposed phosphatidylserine residues [8]: approximately 30%; ROS accumulation (CellROX Deep Red fluorescence) [9]: noticeable increase in visual fluorescence of CellROX Deep Red; chromatin condensation [10]: no chromatin condensation was observed; plasma membrane permeability (SYTOX Green fluorescence) [11]: no significant green fluorescence was observed"
